The assay has as its target T1, human PDE2A1 (Homo sapiens, UniProt O00408).
T1 construct: GST; purchased BPS Bioscience (San Diego, Calif.) 60020; host or cells: insect cells
Nature of the assay: IMAP FP PDE assay, human PDE2A1. The assay is classed as biochemical. In outline: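 FP (IMAP) read after 60 min room-temperature reaction of insect-cell GST-human PDE2A1 with 50 nM FAM-cAMP plus 1000 nM cGMP (pH 7.2 Tris, Mg2+, DTT). Compounds titrated 3-fold over ten points. Apparent Ki derived assuming KM of 10,000 nM; enzyme at 20% substrate turnover.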

Where [1] appears, read: Lab B, read-out: Human PDE2 Ki (nM) Lab B.

Like-named read-outs stand apart in the source and are kept apart here.

T1 sequence (O00408 1-920 isoform O00408-2): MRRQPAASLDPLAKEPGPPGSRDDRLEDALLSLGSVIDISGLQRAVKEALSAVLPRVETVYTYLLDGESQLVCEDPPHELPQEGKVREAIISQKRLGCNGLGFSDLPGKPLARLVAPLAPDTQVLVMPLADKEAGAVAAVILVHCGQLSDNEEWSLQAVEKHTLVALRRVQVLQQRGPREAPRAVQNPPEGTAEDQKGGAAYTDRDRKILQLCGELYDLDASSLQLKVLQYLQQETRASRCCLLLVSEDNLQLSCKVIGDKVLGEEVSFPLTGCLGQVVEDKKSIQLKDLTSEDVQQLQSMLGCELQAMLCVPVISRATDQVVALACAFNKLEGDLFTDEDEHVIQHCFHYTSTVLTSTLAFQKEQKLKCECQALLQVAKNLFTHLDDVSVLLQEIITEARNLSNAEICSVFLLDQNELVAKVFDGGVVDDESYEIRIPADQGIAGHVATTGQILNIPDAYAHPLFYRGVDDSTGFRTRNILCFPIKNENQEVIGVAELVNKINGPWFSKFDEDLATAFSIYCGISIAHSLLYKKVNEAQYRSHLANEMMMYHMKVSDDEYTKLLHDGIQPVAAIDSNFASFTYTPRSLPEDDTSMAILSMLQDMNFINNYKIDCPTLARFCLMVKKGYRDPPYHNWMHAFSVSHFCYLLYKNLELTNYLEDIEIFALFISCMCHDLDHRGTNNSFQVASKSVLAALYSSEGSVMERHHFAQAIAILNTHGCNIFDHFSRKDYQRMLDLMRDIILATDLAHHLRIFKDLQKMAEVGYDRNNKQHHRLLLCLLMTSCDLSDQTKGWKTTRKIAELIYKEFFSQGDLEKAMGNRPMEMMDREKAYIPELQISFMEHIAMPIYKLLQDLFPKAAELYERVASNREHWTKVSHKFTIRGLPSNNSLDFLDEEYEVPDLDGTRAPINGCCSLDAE

For orientation: Ki means a measure of affinity in units of concentration, obtained from inhibition or displacement. With `COc1cccc(Cc2nc3c(c(-c4nnco4)nn3C(C)c3ccc(C(F)(F)F)cc3)c(=O)[nH]2)c1` (single isomer, unassigned) [Example 344, (R)- or (S)-6-(3-Methoxybenzyl)-3-(1,3,4-oxadiazol-2-yl)-1-(1-(4-(trifluoromethyl)phenyl)ethyl)-1,5-dihydro-4H-pyrazolo[3,4-d] pyrimidin-4-one], the Ki under setting [1] was 26 nM. Still for that read-out and setting: in the case of `Cc1nc2c(c(CC(C)O)nn2C(C)c2ccc(C(F)(F)F)cc2)c(=O)[nH]1` (single isomer, unassigned) [Example 245] it was 72 nM.

As to `Cc1nc2c(c(C(F)F)nn2C(C)c2ccc(C(F)(F)F)cc2Cl)c(=O)[nH]1` (single isomer, unassigned) [Example 183, (R)- or (S)-1-(1-(2-Chloro-4-(trifluoromethyl)phenyl)ethyl)-3-(difluoromethyl)-6-methyl-1H-pyrazolo[3,4-d]pyrimidin-4(5H)-one], the Ki under setting [1] turned out to be 547 nM. Same read-out and setting: the result for `CC(c1ccc(C(F)(F)F)cc1)n1nc(C#N)c2c(=O)[nH]c(CC3CC3)nc21` (single isomer, unassigned) [Example 346] reads 34 nM. On the same count and under the same terms, in the case of `Cc1nc2c(c(C(F)F)nn2C2(c3ccc(C(F)(F)F)cc3)COC2)c(=O)[nH]1` [Example 163, 3-(Difluoromethyl)-6-methyl-1-(3-(4-(trifluoromethyl)phenyl)oxetan-3-yl)-1H-pyrazolo[3,4-d]pyrimidin-4(5H)-one] it was 9.5 nM; in that of `CC(c1ccc(C(F)(F)F)cc1)n1nc(-c2nnco2)c2c(=O)[nH]c(CC3CCCC3)nc21` (single isomer, unassigned) [Example 343, (S) or (R)-6-(Cyclopentylmethyl)-3-(1,3,4-oxadiazol-2-yl)-1-(1-(4-(trifluoromethyl)phenyl)ethyl)-1,5-dihydro-4H-pyrazolo[3,4-d] pyrimidin-4-one], 299 nM. Still for that read-out and setting: the result for `Cc1nc2c(c(-c3ccco3)nn2C(C)c2ccc(C(F)(F)F)cc2)c(=O)[nH]1` (single isomer, unassigned) [Example 74, (R)- or (S)-3-(Furan-2-yl)-6-methyl-1-(1-(4-(trifluoromethyl)phenyl)ethyl)-1H-pyrazolo[3,4-d]pyrimidin-4(5H)-one] reads 258 nM. As for `CCc1nc2c(c(C(F)F)nn2C(C)c2ccc(C(F)(F)F)cc2)c(=O)[nH]1` (single isomer, unassigned) [Example 189, (R)- or (S)-3-(Difluoromethyl)-6-ethyl-1-(1-(4-(trifluoromethyl)phenyl)ethyl)-1,5-dihydro-4H-pyrazolo[3,4-d]pyrimidin-4-one], the Ki under setting [1] turned out to be 330 nM. On to `Cc1nc2c(c(CO)nn2C(C)c2ccc(OC(F)(F)F)cc2F)c(=O)[nH]1` (single isomer, unassigned) [Example 105, (S)- or (R)-1-(1-(2-Fluoro-4-(trifluoromethoxy)phenyl)ethyl)-3-(hydroxymethyl)-6-methyl-1H-pyrazolo[3,4-d]pyrimidin-4(5H)-one], for which, under setting [1], the Ki is 1.9 nM.

As for `Cc1nc2c(c(CC(C)O)nn2C(C)c2ccc(C(F)(F)F)cc2)c(=O)[nH]1` (single isomer, unassigned) [Example 243], the Ki under setting [1] was determined as 808 nM. Same read-out and setting: the result for `Cc1nc2c(c(CC(F)(F)F)nn2C(C)c2ccc(OC(F)(F)F)cc2)c(=O)[nH]1` (single isomer, unassigned) [Example 67, (S)- or (R)-6-Methyl-3-(2,2,2-trifluoroethyl)-1-(1-(4-(trifluoromethoxy)phenyl)ethyl)-1H-pyrazolo[3,4-d]pyrimidin-4(5H)-one] reads 6.7 nM; that for `Cc1nc2c(c(CO)nn2C(C)c2ccc(C(F)(F)F)nc2)c(=O)[nH]1` (single isomer, unassigned) [Example 131, (S)- or (R)-3-(Hydroxymethyl)-6-methyl-1-(1-(6-(trifluoro-methyl)pyridin-3-yl)ethyl)-1H-pyrazolo[3,4-d]pyrimidin-4(5H)-one], 57 nM; that for `Cc1nc2c(c(CO)nn2C(C)c2ccc(C(F)(F)F)cc2C)c(=O)[nH]1` (single isomer, unassigned) [Example 108, (R)- or (S)-3-(Hydroxymethyl)-6-methyl-1-(1-(2-methyl-4-(trifluoromethyl)phenyl)ethyl)-1H-pyrazolo[3,4-d]pyrimidin-4(5H)-one], approximately 1280 nM.

Regarding `CC(c1ccc(C(F)(F)F)cc1)n1nc(-c2nnco2)c2c(=O)[nH]c(CC3CCCC3)nc21` (single isomer, unassigned) [Example 342, (R) or (S)-6-(Cyclopentylmethyl)-3-(1,3,4-oxadiazol-2-yl)-1-(1-(4-(trifluoromethyl)phenyl)ethyl)-1,5-dihydro-4H-pyrazolo[3,4-d] pyrimidin-4-one], the Ki under setting [1] came out at 2.5 nM. Still for that read-out and setting: the result for `Cc1nc2c(c(CO)nn2C(C)c2ccc(OC(F)F)c(F)c2)c(=O)[nH]1` (single isomer, unassigned) [Example 112, (R)- or (S)-1-(1-(4-(Difluoromethoxy)-3-fluorophenyl)ethyl)-3-(hydroxymethyl)-6-methyl-1H-pyrazolo[3,4-d]pyrimidin-4(5H)-one] reads 88 nM. Regarding `Cc1nc2c(c(CO)nn2C(c2ccc(C(F)(F)F)c(F)c2)C2(C)CC2)c(=O)[nH]1` (single isomer, unassigned) [Example 14, (R)- or (S)-1-((3-Fluoro-4-(trifluoromethyl)phenyl)(1-methylcyclopropyl)methyl)-3-(hydroxymethyl)-6-methyl-1H-pyrazolo[3,4-d]pyrimidin-4(5H)-one], under setting [1], the Ki was determined as 2.4 nM. Consider `Cc1nc2c(c(CO)nn2C(C)c2ccc(S(F)(F)(F)(F)F)cc2F)c(=O)[nH]1` (single isomer, unassigned) [Example 120], for which, under setting [1], the Ki turned out to be 496 nM. Consider `COc1ccc(Cc2nc3c(c(CO)nn3C(C)c3ccc(C(F)(F)F)cc3)c(=O)[nH]2)cc1OC` (racemic) [Example 297, 6-(3,4-Dimethoxybenzyl)-3-(hydroxymethyl)-1-{1-[4-(trifluoromethyl)phenyl]ethyl}-1,5-dihydro-4H-pyrazolo[3,4-d]pyrimidin-4-one], for which, for the setting “Lab A, read-out: Human PDE2 Ki (nM) Lab A”, the Ki turned out to be 0.72 nM.

As to `Cc1nc2c(c(C(F)F)nn2C(C)c2ccc(C(F)(F)C(F)(F)F)cc2)c(=O)[nH]1` (centres unmarked) [Example 165, 3-(Difluoromethyl)-6-methyl-1-(1-(4-(perfluoroethyl)phenyl)ethyl)-1H-pyrazolo[3,4-d]pyrimidin-4(5H)-one], under setting [1], the Ki turned out to be 6.3 nM. As to `Cc1nc2c(c(C(F)F)nn2C(C)c2ccc(C(F)(F)F)cc2Cl)c(=O)[nH]1` (single isomer, unassigned) [Example 184, (S)- or (R)-1-(1-(2-Chloro-4-(trifluoro-methyl)phenyl)-ethyl)-3-(difluoromethyl)-6-methyl-1H-pyrazolo[3,4-d]pyrimidin-4(5H)-one], the Ki under setting [1] amounted to 1.6 nM. Take `CC(=O)c1nn([C@@H](C)c2ccc(C(F)(F)F)cc2)c2nc(C)[nH]c(=O)c12` [Example 322, (S)-3-Acetyl-6-methyl-1-(1-(4-(trifluoromethyl)phenyl)ethyl)-1,5-dihydro-4H-pyrazolo[3,4-d]pyrimidin-4-one]: the Ki under setting [1] amounted to 42 nM.

Regarding `Cc1nc2c(c(CO)nn2C2(c3ccc(C(F)(F)F)cc3)COC2)c(=O)[nH]1` [Example 79, 3-(Hydroxymethyl)-6-methyl-1-(3-(4-(trifluoromethyl)phenyl)oxetan-3-yl)-1H-pyrazolo[3,4-d]pyrimidin-4(5H)-one], under setting [1], the Ki is 23 nM. Still for that read-out and setting: the result for `Cc1nc2c(c(CO)nn2C(C)c2ccc(C(F)(F)F)c(I)c2)c(=O)[nH]1` (single isomer, unassigned) [Example 139, (S)- or (R)-3-(Hydroxymethyl)-1-(1-(3-iodo-4-(trifluoromethyl-)phenyl)ethyl)-6-methyl-1,5-dihydro-4H-pyrazolo[3,4-d]pyrimidin-4-one] reads 5.6 nM. On the same count and under the same terms, the result for `CC(c1ccc(C(F)(F)F)cc1)n1nc(CO)c2c(=O)[nH]c(C3CCCO3)nc21` (single isomer, unassigned) [Example 311, (R,R)- or (S,S)- or (R,S)- or (S,R)-3-(Hydroxymethyl)-6-(tetrahydrofuran-2-yl)-1-(1-(4-(trifluoromethyl)-phenyl)ethyl)-1,5-dihydro-4H-pyrazolo[3,4-d]pyrimidin-4-one] reads approximately 1210 nM. Still for that read-out and setting: the result for `COc1cccc(Cc2nc3c(c(-c4nnco4)nn3C(C)c3ccc(C(F)(F)F)cc3)c(=O)[nH]2)c1` (single isomer, unassigned) [Example 345, (S)- or (R)-6-(3-Methoxybenzyl)-3-(1,3,4-oxadiazol-2-yl)-1-(1-(4-(trifluoromethyl)phenyl)ethyl)-1,5-dihydro-4H-pyrazolo[3,4-d] pyrimidin-4-one] reads 0.15 nM; that for `Cc1nc2c(c(CO)nn2C(C)c2ccc(Cl)s2)c(=O)[nH]1` (single isomer, unassigned) [Example 154, (S)- or (R)-1-(1-(5-Chlorothiophen-2-yl)ethyl)-3-(hydroxymethyl)-6-methyl-1H-pyrazolo[3,4-d]pyrimidin-4(5H)-one], 18 nM; that for `Cc1nc2c(c(CC(F)(F)F)nn2C(c2ccc(C(F)(F)F)c(F)c2)C2(C)CC2)c(=O)[nH]1` (single isomer, unassigned) [Example 62, (R)- or (S)-1-((3-Fluoro-4-(trifluoromethyl)phenyl)(1-methylcyclopropyl)methyl)-6-methyl-3-(2,2,2-trifluoroethyl)-1H-pyrazolo[3,4-d]pyrimidin-4(5H)-one], 1100 nM. On to `CC(c1ccc(C(F)(F)F)cc1)n1nc(C#N)c2c(=O)[nH]c(CC3CC3)nc21` (single isomer, unassigned) [Example 347], for which the Ki under setting [1] was 1030 nM. Same read-out and setting: the result for `CC(C)Cc1nc2c(c(CO)nn2C(C)c2ccc(C(F)(F)F)cc2)c(=O)[nH]1` (single isomer, unassigned) [Example 306, (S)- or (R)-3-(Hydroxy-methyl)-6-isobutyl-1-(1-(4-(trifluoromethyl)phenyl)ethyl)-1,5-dihydro-4H-pyrazolo[3,4-d]pyrimidin-4-one] reads 568 nM.

The record behind these values is US10160762B2, “6-alkyl dihydropyrazolopyrimidinone compounds as PDE2 inhibitors” (Merck Sharp & Dohme Corp., priority 2015, dated 2018).
